Data taken from patent publication US20130143929A1, “FUNGICIDAL IMIDAZOLES” (EI DU PONT DE NEMOURS AND COMPANY, priority 2010, published 2013).
Marks after values point to notes of the source that are not given here.

Columns and labels:
Type in all cases: in vivo
[1] = tested on: Puccinia recondite f. sp. tritici (the causal agent of wheat leaf rust); test: Test A: wheat leaf rust, preventive spray on wheat seedlings, visual disease rating; details: for Test A rating (100 = 100% disease control, 0 = no disease control relative to the controls): wheat leaf rust, preventive spray on wheat seedlings; for Test A rating (% disease control, wheat leaf rust): no asterisk: standard test suspension concentration, 100 = 100% disease control, 0 = no control relative to controls
In short: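 Wheat seedlings were sprayed to run-off with compound suspended in acetone/water containing 250 ppm Trem 014 (200 ppm ≈ 800 g/ha; some at 40 ppm). Puccinia recondite spores were inoculated the next day. Plants were held 24 h saturated at 20° C, then 7 days at 20° C, and disease control was rated visually on a 0–100 scale against controls.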

[2] = tested on: Septoria tritici (the causal agent of wheat leaf blotch); test: Test B: wheat leaf blotch, preventive spray on wheat seedlings, visual disease rating; details: for Test B rating (100 = 100% disease control, 0 = no disease control relative to the controls): wheat leaf blotch, preventive spray on wheat seedlings; for Test B rating (% disease control, wheat leaf blotch): no asterisk: standard test suspension concentration, 100 = 100% disease control, 0 = no control relative to controls
In short: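 Wheat seedlings sprayed to run-off with compound suspension (acetone/water with 250 ppm Trem 014; 200 ppm ≈ 800 g/ha, some at 40 ppm), inoculated next day with Septoria tritici spores. 48 h saturated humidity at 24 °C, then 19 days at 20 °C; visual rating, 100 = full control.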

[3] = tested on: Botrytis cinerea (the causal agent of tomato Botrytis); test: Test C: tomato Botrytis, preventive spray on tomato seedlings, visual disease rating; details: for Test C rating (100 = 100% disease control, 0 = no disease control relative to the controls): tomato Botrytis, preventive spray on tomato seedlings; for Test C rating (% disease control, tomato Botrytis): no asterisk: standard test suspension concentration, 100 = 100% disease control, 0 = no control relative to controls
In short: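 Test suspension (acetone/water with 250 ppm Trem 014; 200 ppm equivalent to 800 g/ha) sprayed to run-off on tomato seedlings; B. cinerea spores inoculated next day. After 48 h saturated humidity at 20° C then 3 days at 24° C, disease rated visually as % control relative to untreated controls (0–100).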

[4] = tested on: Blumeria graminis f. sp. tritici (also known as Erysiphe graminis f. sp. tritici, the causal agent of wheat powdery mildew); test: Test D: wheat powdery mildew, preventive spray on wheat seedlings, visual disease rating; details: for Test D rating (100 = 100% disease control, 0 = no disease control relative to the controls): wheat powdery mildew, preventive spray on wheat seedlings; for Test D rating (% disease control, wheat powdery mildew): no asterisk: standard test suspension concentration, 100 = 100% disease control, 0 = no control relative to controls
In short: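 Compound suspended in acetone/water (50/50) with 250 ppm Trem 014 and sprayed to run-off on wheat seedlings (200 ppm ≈ 800 g/ha), then inoculated next day with spore dust. Disease rated visually after 8 days at 20 °C as % control relative to untreated plants (0-100).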

[5] = no asterisk (standard test suspension concentration, not 40 ppm)
[6] = asterisk: 40 ppm test suspension

SMILES | Test A rating (100 = 100% disease control, 0 = no disease control relative to the controls) [1, 5] [%] | Test B rating (100 = 100% disease control, 0 = no disease control relative to the controls) [2, 5] [%] | Test C rating (100 = 100% disease control, 0 = no disease control relative to the controls) [3, 5] [%] | Test D rating (100 = 100% disease control, 0 = no disease control relative to the controls) [4, 5] [%] | Test B rating (100 = 100% disease control, 0 = no disease control relative to the controls) [2, 6] | Test A rating (100 = 100% disease control, 0 = no disease control relative to the controls) [1, 6] | Test C rating (100 = 100% disease control, 0 = no disease control relative to the controls) [3, 6] | Test D rating (100 = 100% disease control, 0 = no disease control relative to the controls) [4, 6] | further results
OC(c1ccc(F)cc1F)c1c(Cl)nc(Cl)n1-c1ccc(F)cc1F (single isomer, unassigned) [compound 79] | 100 | 100 | 98 | 0 |  |  |  |  | 
Cc1cc(F)ccc1C(O)c1c(Cl)nc(Cl)n1-c1c(F)cc(F)cc1Cl (racemic) [compound 14] | 100 |  | 99 | 100 | 100* % |  |  |  | 
COc1ccc(C(O)c2c(Br)nc(Cl)n2-c2c(F)cccc2F)c(Cl)c1 (stereo not drawn) [Compound 287, 4-bromo-2-chloro-α-(2-chloro-4-methoxyphenyl)-1-(2,6-difluorophenyl)-1H-imidazole-5-methanol] |  |  |  |  | 100* % | 100* % | 100* % | 97* % | 
Cc1ncc(C(O)c2ccc(F)cc2F)n1-c1c(F)cc(Cl)cc1F (stereo not drawn) [compound 122] |  |  |  |  | 100* % | 98* % | 0* % | 0* % | 
Cc1cc(F)ccc1C(O)c1c(Br)nc(C)n1-c1c(F)cccc1Cl (stereo not drawn) [compound 186] |  |  |  |  | 100* % | 99* % | 99* % | 97* % | 
Cc1cccc(F)c1-n1c(C)nc(Cl)c1C(O)c1ccc(F)cc1F (stereo not drawn) [compound 339] |  |  |  |  | 98* % | 98* % | 86* % | 76* % | 
Cc1nc(Br)c(C(O)c2ccc(C#N)cc2F)n1-c1ccc(F)cc1Br (stereo not drawn) [compound 326] |  |  |  |  | 90* % | 99* % | 30* % | 0* % | 
Cc1cc(F)ccc1C(O)c1c(C)nc(Cl)n1-c1ccc(F)cc1F (stereo not drawn) [compound 104] | 100 | 100 | 99 | 97 |  |  |  |  | 
Cc1nc(Cl)c(C(O)c2ccc(C#N)cc2F)n1-c1c(F)cccc1F (stereo not drawn) [compound 180] |  |  |  |  | 48* % | 0* % | 0* % | 0* % | 
COc1cc(OC)c(Br)c(-n2c(C)nc(Br)c2C(O)c2c(F)cc(F)cc2F)c1 (stereo not drawn) [compound 203] | 41 | 30 | 66 | 0 |  |  |  |  | 
Cc1nc(Cl)c(C(O)c2ccc(F)cc2Br)n1-c1ccc(F)cc1Cl (racemic) [compound 272] |  |  |  |  | 100* % | 100* % | 93* % | 21* % | 
Cc1nc(Cl)n(-c2ccc(F)cc2Br)c1C(O)c1ccc(Cl)cc1Cl (racemic) [compound 11] | 99 | 68 | 31 | 0 |  |  |  |  | 
COc1cc(F)c(C(O)c2c(Cl)nc(C)n2-c2c(F)cccc2F)c(F)c1 (stereo not drawn) [compound 192] |  |  |  |  | 100* % | 100* % | 100* % | 53* % | 
COc1ccc(C(O)c2cnc(CCl)n2-c2c(F)cc(F)cc2Br)c(Cl)c1 (stereo not drawn) [compound 352] | 100 | 100 | 99 | 95 |  |  |  |  | 
Cc1ncc(C(O)c2ccc(F)cc2Cl)n1-c1c(F)cc(F)cc1Br (stereo not drawn) [compound 74] | 100 | 100 | 100 | 0 |  |  |  |  | 
Cc1cc(F)ccc1C(O)c1c(Cl)nc(Cl)n1-c1ccc(F)cc1Cl (single isomer, unassigned) [compound 50] | 100 | 100 | 100 | 90 |  |  |  |  | 
Cc1nc(Br)c(C(O)c2ccc(F)cc2Cl)n1-c1c(F)cc(Cl)cc1F (stereo not drawn) [compound 116] |  |  |  |  | 100* % | 99* % | 0* % | 0* % | 
COc1cc(OC)cc(-n2c(C)nc(Br)c2C(O)c2c(F)cc(F)cc2F)c1 (racemic) [compound 279] |  |  |  |  | 0* % | 0* % | 0* % | 0* % | 
Cc1cc(F)ccc1C(O)c1cnc(C)n1-c1ccc(F)cc1Cl (stereo not drawn) [compound 395] |  |  |  |  |  |  |  |  | Test A rating (% disease control, wheat leaf rust) [1]: 99%; Test B rating (% disease control, wheat leaf blotch) [2]: 100%; Test C rating (% disease control, tomato Botrytis) [3]: 21%; Test D rating (% disease control, wheat powdery mildew) [4]: 35%
COc1ccc(C(O)c2c(Br)ncn2-c2ccc(F)cc2Cl)c(F)c1 (racemic) [compound 230] |  |  |  |  | 50* % | 97* % | 99* % | 0* % | 
Cc1nc(Cl)n(-c2c(F)cccc2Br)c1C(O)c1ccc(F)cc1Cl (stereo not drawn) [compound 207] |  |  |  |  | 100* % | 100* % | 100* % | 81* % | 
Cc1nc(Br)c(C(O)c2c(Cl)cccc2Cl)n1-c1c(F)cccc1F (stereo not drawn) [compound 194] |  |  |  |  | 100* % | 99* % | 77* % | 0* % | 
Cc1cc(F)ccc1C(O)c1cnc(C)n1-c1ccc(F)cc1F (stereo not drawn) [compound 415] |  |  |  |  |  |  |  |  | Test A rating (% disease control, wheat leaf rust) [1]: 74%; Test B rating (% disease control, wheat leaf blotch) [2]: 18%; Test C rating (% disease control, tomato Botrytis) [3]: 0%; Test D rating (% disease control, wheat powdery mildew) [4]: 0%
Cc1nc(Cl)c(C(O)c2c(F)cc(Cl)cc2F)n1-c1ccc(F)cc1Cl (stereo not drawn) [compound 156] | 98 | 92 | 16 | 0 |  |  |  |  | 
